Assay results: US8906952B2, “Indole derivative or pharmaceutically acceptable salt thereof, preparation method thereof, and pharmaceutical composition for preventing or treating metabolic diseases containing same as active ingredient” (Korea Research Institute of Bioscience and Biotechnology, priority 2011, dated 2014)

Assays:
Type in all cases: biochemical
human DGAT1 = biological target: T1, human DGAT1 (Homo sapiens, UniProt O75907); test: DGAT enzyme inhibition test, hDGAT1 enzyme from sf9 insect cells; details: enzyme from sf9 cells overexpressing hDGAT1; read-out: hDGAT-1 (sf9) IC50
T1 construct: made in house; host or cells: sf9 insect cells
T1 sequence (O75907 1-488): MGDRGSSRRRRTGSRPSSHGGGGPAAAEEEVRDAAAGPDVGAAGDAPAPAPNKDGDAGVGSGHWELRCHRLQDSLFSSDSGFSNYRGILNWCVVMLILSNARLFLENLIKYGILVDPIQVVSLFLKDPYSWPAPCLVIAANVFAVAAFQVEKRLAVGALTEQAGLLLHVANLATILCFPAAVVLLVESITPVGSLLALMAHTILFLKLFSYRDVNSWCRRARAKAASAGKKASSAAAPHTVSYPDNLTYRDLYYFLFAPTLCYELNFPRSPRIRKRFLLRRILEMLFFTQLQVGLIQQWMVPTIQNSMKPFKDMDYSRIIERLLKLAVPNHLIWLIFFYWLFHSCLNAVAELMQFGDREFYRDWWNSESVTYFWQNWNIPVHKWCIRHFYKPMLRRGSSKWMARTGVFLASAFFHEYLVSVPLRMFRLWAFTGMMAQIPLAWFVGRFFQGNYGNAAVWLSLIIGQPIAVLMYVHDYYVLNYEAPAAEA
Excerpt: (§1) To investigate inhibitory effect of the compounds of Examples 1-33 against DGAT enzyme activity, DGAT enzyme inhibition and DGAT2 selectivity were investigated using zymogen including:
1) hDGAT1 and hDGAT2 enzymes, derived from insect cell overexpressing human DGAT1 and DGAT2 (‘sf9’), respectively,
(§2) To be specific, for the purpose of measuring human-derived DGAT enzyme inhibitory activity, using the zymogen, including enzymes derived from insect cell overexpressing human DGAT1 and DGAT2 (‘sf9’), microsomal protein isolated from human duodenal adenocarcinoma (‘Hutu 80’), and microsomal protein isolated from rat, and according to Coleman et al., (Methods Enzymol., 98-103, 1992), and substrate including 1,2-diacylglycerol(Sigma, D0138) and [^14C]palmitoyl-CoA (Amersham, CFA583), the amount of radiation of [^14C]triacylglycerol produced after enzymatic reaction was measured.
(§3) To be more specific, to the reaction solution containing 175 mM Tris-HCl (pH 8.0), 20 μl bovine serum albumin (10 mg/ml), 100 mM magnesium chloride, 30 μM [^14C]palmitoyl CoA (0.02 μCi, Amersham) and 200 μM 1,2-dioleoylglycerol, reagent dissolved in dimethylsulfoxide (10.0 μl) was added. After introducing 100 to 200 μg isolated microsomal protein and allowing the same to react at 25° C. for 10 min, the reaction was stopped by adding 1.5 ml stop solution (2-propanol:heptane:water=80:20:2, v:v:v). To isolate the product of the reaction (i.e., [^14C]triacylglycerol), 1 ml heptane and 0.5 ml distilled water were added and then decocted. After taking 1 ml supernatant, 2 ml alkaline ethanol solution (ethanol:0.5 N sodium hydroxide:water=50:10:40, v:v:v) were added and then decocted. After taking 0.65 ml supernatant from the decoction, the amount of radiation was measured with liquid scintillation counter (LSC). The DGAT inhibitory activity was calculated with Mathematical Expression 1 below:
(§4) T denotes cpm of experimental group in which the enzymatic reaction solution was treated with the sample,
(§5) C denotes cpm of control group in which the enzymatic reaction solution was not treated with the sample, and
(§6) B denotes cpm of control group treated with the sample without zymogen.

DGAT-1 (rat liver) = biological target: T2, DGAT-1 (rat liver) (Rattus norvegicus, UniProt Q9ERM3); test: DGAT enzyme inhibition test, rat liver-derived DGAT enzyme; details: rat liver microsomal protein
T2 construct: microsomal protein isolated from rat; from tissue; host or cells: rat liver microsomes
T2 sequence (Q9ERM3 1-498): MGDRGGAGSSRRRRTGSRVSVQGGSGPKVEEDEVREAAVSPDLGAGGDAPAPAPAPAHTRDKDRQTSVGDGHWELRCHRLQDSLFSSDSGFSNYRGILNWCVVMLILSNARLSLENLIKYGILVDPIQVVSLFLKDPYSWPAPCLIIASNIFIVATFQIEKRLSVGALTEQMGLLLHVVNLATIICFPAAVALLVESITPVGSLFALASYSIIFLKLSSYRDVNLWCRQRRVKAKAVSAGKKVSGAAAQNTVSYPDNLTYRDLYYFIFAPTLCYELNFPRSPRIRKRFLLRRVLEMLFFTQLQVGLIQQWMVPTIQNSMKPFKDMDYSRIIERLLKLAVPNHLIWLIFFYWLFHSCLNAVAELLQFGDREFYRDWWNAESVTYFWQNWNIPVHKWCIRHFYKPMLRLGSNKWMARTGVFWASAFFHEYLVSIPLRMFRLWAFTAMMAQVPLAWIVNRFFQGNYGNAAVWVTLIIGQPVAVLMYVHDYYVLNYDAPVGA
Excerpt: as §1
3) rat liver-derived DGAT enzyme.
as §2, §3, §4, §5, §6

hDGAT-1 (HuTu 80) = biological target: T3, hDGAT-1 (HuTu 80) (Homo sapiens, UniProt O75907); test: DGAT enzyme inhibition test, microsomal protein from human duodenal adenocarcinoma (Hutu 80); details: microsomal protein from HuTu 80
T3 construct: microsomal protein isolated from human duodenal adenocarcinoma (‘Hutu 80’); endogenous in cells; host or cells: HuTu 80 human duodenal adenocarcinoma cells (microsomes)
T3 sequence (O75907 1-488): T1 sequence (O75907 1-488)
Excerpt: as §1
2) DGAT enzyme derived from human duodenal adenocarcinoma (‘Hutu 80’), and
as §2, §3, §4, §5, §6

| IC50 (human DGAT1) [µM] | IC50 (DGAT-1 (rat liver)) [µM] | IC50 (hDGAT-1 (HuTu 80)) [µM] | Compound |
| --- | --- | --- | --- |
| 20.4 | 9.1 | 8.1 | CC(C)N(NC(=O)c1ccc(Br)cc1)C(=O)/C=C/c1cn(C(=O)OC(C)(C)C)c2ccccc12 [Example 13, (E)-tert-butyl 3-(3-(2-(4-bromobenzoyl)-1-isopropylhydrazinyl)-3-oxoprop-1-enyl)-1H-indole-1-carboxylate] |
| 8.8 | 2.8 | 2.7 | CC(C)N(NC(=O)c1ccc(Cl)cc1)C(=O)/C=C/c1cn(C(=O)OC(C)(C)C)c2ccccc12 [Example 14, (E)-tert-butyl 3-(3-(2-(4-chlorobenzoyl)-1-isopropylhydrazinyl)-3-oxoprop-1-enyl)-1H-indole-1-carboxylate] |
| 20.4 | 0.4 | 1.1 | CC(C)N(NC(=O)c1cccc(F)c1)C(=O)/C=C/c1cn(C(=O)OC(C)(C)C)c2ccccc12 [Example 15, (E)-tert-butyl 3-(3-(2-(3-fluorobenzoyl)-1-isopropylhydrazinyl)-3-oxoprop-1-enyl)-1H-indole-1-carboxylate] |
| > 100 | 26.3 | 10.7 | CC(C)(C)OC(=O)n1cc(/C=C/C(=O)NNC(=O)c2ccccc2)c2ccccc21 [Example 16, (E)-tert-butyl 3-(3-(2-benzoylhydrazinyl)-3-oxoprop-1-enyl)-1H-indole-1-carboxylate] |
| 2.1 | – | – | CC(C)N(NC(=O)c1ccc(F)cc1)C(=O)/C=C/c1cn(C(=O)OC(C)(C)C)c2ccccc12 [Example 44, (E)-tert-butyl 3-(3-(2-(4-fluorobenzoyl)-1-isopropylhydrazinyl)-3-oxoprop-1-enyl)-1H-indole-1-carboxylate] |
| 1 | – | – | CC(C)CCn1cc(/C=C/C(=O)N(NC(=O)c2ccc(F)cc2)C(C)C)c2ccccc21 [Example 46, (E)-4-fluoro-N′-(3-(1-isopentyl-1H-indol-3-yl)acryloyl)-N′-isopropylbenzohydrazide] |
| 2.9 | – | – | Cc1cccc(C(=O)NN(C(=O)/C=C/c2cn(C(=O)OC(C)(C)C)c3ccccc23)C(C)C)c1 [Example 47, (E)-tert-butyl 3-(3-(1-isopropyl-2-(3-methylbenzoyl)hydrazinyl)-3-oxoprop-1-enyl)-1H-indole-1-carboxylate] |
| 9.8 | – | – | Cc1ccc(C(=O)NN(C(=O)/C=C/c2cn(C(=O)OC(C)(C)C)c3ccccc23)C(C)C)cc1 [Example 48, (E)-tert-butyl 3-(3-(1-isopropyl-2-(4-methylbenzoyl)hydrazinyl)-3-oxoprop-1-enyl)-1H-indole-1-carboxylate] |
| 1.5 | – | – | CC(C)=CCn1cc(/C=C/C(=O)N(NC(=O)c2ccc(F)cc2)C(C)C)c2ccccc21 [Example 49, (E)-4-fluoro-N′-isopropyl-N′-(3-(1-(3-methylbut-2-enyl)-1H-indol-3-yl)acryloyl)benzohydrazide] |

The next lines start with the compound.

| Compound | IC50 (human DGAT1) [µM] | IC50 (DGAT-1 (rat liver)) [µM] | IC50 (hDGAT-1 (HuTu 80)) [µM] |
| --- | --- | --- | --- |
| CC(C)N(NC(=O)c1ccccc1)C(=O)/C=C/c1cn(C(=O)OC(C)(C)C)c2ccccc12 [Example 1, (E)-tert-butyl 3-(3-(2-benzoyl-1-isopropylhydrazinyl)-3-oxoprop-1-enyl)-1H-indole-1-carboxylate] | 9.6 | 1.1 | 1.4 |
| CC(C)N(NC(=O)c1ccccn1)C(=O)/C=C/c1cn(C(=O)OC(C)(C)C)c2ccccc12 [Example 2, (E)-tert-butyl 3-(3-(1-isopropyl-2-picolinoylhydrazinyl)-3-oxoprop-1-enyl)-1H-indole-1-carboxylate] | > 100 | 7.6 | 11.2 |
| CC(C)N(NC(=O)c1cccnc1)C(=O)/C=C/c1cn(C(=O)OC(C)(C)C)c2ccccc12 [Example 3, (E)-tert-butyl 3-(3-(1-isopropyl-2-nicotinoylhydrazinyl)-3-oxoprop-1-enyl)-1H-indole-1-carboxylate] | > 100 | 3.9 | 6.5 |
| CC(C)N(NC(=O)c1cccc(O)c1)C(=O)/C=C/c1cn(C(=O)OC(C)(C)C)c2ccccc12 [Example 4, (E)-tert-butyl 3-(3-(2-(3-hydroxybenzoyl)-1-isopropylhydrazinyl)-3-oxoprop-1-enyl)-1H-indole-1-carboxylate] | > 100 | 22.4 | 12.4 |
| CC(C)N(NC(=O)c1ccc(O)cc1)C(=O)/C=C/c1cn(C(=O)OC(C)(C)C)c2ccccc12 [Example 5, (E)-tert-butyl 3-(3-(2-(4-hydroxybenzoyl)-1-isopropylhydrazinyl)-3-oxoprop-1-enyl)-1H-indole-1-carboxylate] | 22.5 | 16.3 | 6.6 |
| COc1cccc(C(=O)NN(C(=O)/C=C/c2cn(C(=O)OC(C)(C)C)c3ccccc23)C(C)C)c1 [Example 6, (E)-tert-butyl 3-(3-(1-isopropyl-2-(3-methoxybenzoyl)hydrazinyl)-3-oxoprop-1-enyl)-1H-indole-1-carboxylate] | > 100 | 2.1 | 5.2 |
| COc1ccc(C(=O)NN(C(=O)/C=C/c2cn(C(=O)OC(C)(C)C)c3ccccc23)C(C)C)cc1 [Example 7, (E)-tert-butyl 3-(3-(1-isopropyl-2-(4-methoxybenzoyl)hydrazinyl)-3-oxoprop-1-enyl)-1H-indole-1-carboxylate] | > 100 | 8.7 | 11.6 |
| CC(C)N(NC(=O)c1cccc(OCCN2CCOCC2)c1)C(=O)/C=C/c1cn(C(=O)OC(C)(C)C)c2ccccc12 [Example 8, (E)-tert-butyl 3-(3-(1-isopropyl-2-(3-(2-morpholinoethoxy)benzoyl)hydrazinyl)-3-oxoprop-1-enyl)-1H-indole-1-carboxylate] | > 100 | 2.5 | 9.3 |
| CC(C)N(NC(=O)c1ccc(OCCN2CCOCC2)cc1)C(=O)/C=C/c1cn(C(=O)OC(C)(C)C)c2ccccc12 [Example 9, (E)-tert-butyl 3-(3-(1-isopropyl-2-(4-(2-morpholinoethoxy)benzoyl)hydrazinyl)-3-oxoprop-1-enyl)-1H-indole-1-carboxylate] | > 100 | 11.8 | 19.6 |
| COCCOc1cccc(C(=O)NN(C(=O)/C=C/c2cn(C(=O)OC(C)(C)C)c3ccccc23)C(C)C)c1 [Example 10, (E)-tert-butyl 3-(3-(1-isopropyl-2-(3-(2-methoxyethoxy)benzoyl)hydrazinyl)-3-oxoprop-1-enyl)-1H-indole-1-carboxylate] | 36.4 | 2.6 | 7.7 |
| CC(C)N(NC(=O)c1cccc(Br)c1)C(=O)/C=C/c1cn(C(=O)OC(C)(C)C)c2ccccc12 [Example 12, (E)-tert-butyl 3-(3-(2-(3-bromobenzoyl)-1-isopropylhydrazinyl)-3-oxoprop-1-enyl)-1H-indole-1-carboxylate] | 6.8 | 1.7 | 2.6 |
